Results as given in patent US11369616B2, “Drug combination and its use in therapy” (Proximagen, LLC, priority 2016, dated 2022).

Assays:
Assay type in all cases: in vivo, mice
CT26 = assay: Syngeneic subcutaneous tumour growth inhibition, CT26 (Study 2); settings: Colorectal, CT26, SDF-1 17 FPKM; 641 50 mg/kg p.o. 5 days out of 7; anti-PD1 10 mg/kg i.p. twice weekly for 3 weeks; vs vehicle group
Description: (§1) Four syngeneic cell lines (EMT-6, H22, CT26, B16F10small) were cultured and when in exponential growth were inoculated in mice subcutaneously with tumour cells in 0.1 mL of PBS for tumour development. After the mean tumour size reached approximately 80-120 mm^3 the mice were treated with anti-PD1 antibody (clone RMP1-14) (10 mg/kg i.p. twice weekly for 3 weeks) or 6-{4-[1-(Propan-2-yl)piperidin-4-yl]-1,4-diazepan-1-yl}-N-(pyridin-4-yl)pyridine-2-carboxamide (50 mg/kg p.o. 5 days out of 7), or a combination of the two treatments. Tumour volumes were measured twice weekly at least in two dimensions using a caliper, and the volume expressed in mm^3 using the formula: V=0.5 a×b^2 where a and b are the long and short diameters of the tumour, respectively. Tumour growth was measured and inhibition of tumour growth reported in comparison to a vehicle treated group. All groups contained 8 mice. If the tumours in a group reached an average volume of 2000 mm^3, the experiment was terminated.
(§2) SDF-1 levels were measured by RNA sequencing and are expressed as fragments read per million mapped reads per kilobase of transcript (FPKM). FPKM is normalised to all the fragments read and to the length of the genes, and so is in effect a ratio of the number of SDF-1 reads to all the other genes read multiplied by one million.

H22 = assay: Syngeneic subcutaneous tumour growth inhibition, H22 (Study 2); settings: Liver, H22, SDF-1 26 FPKM; 641 50 mg/kg p.o. 5 days out of 7; anti-PD1 10 mg/kg i.p. twice weekly for 3 weeks; vs vehicle group
Description: as §1, §2

B16F10 small = assay: Syngeneic subcutaneous tumour growth inhibition, B16F10 small (Study 2); settings: Melanoma, SDF-1 4 FPKM, 641 50 mg/kg p.o. 5 days out of 7, anti-PD1 10 mg/kg i.p. twice weekly for 3 weeks, vs vehicle group
Description: as §1, §2

EMT6 = assay: Syngeneic subcutaneous tumour growth inhibition, EMT6 (Study 2); settings: Breast, EMT6, SDF-1 42 FPKM; 641 50 mg/kg p.o. 5 days out of 7; anti-PD1 10 mg/kg i.p. twice weekly for 3 weeks; vs vehicle group
Description: as §1, §2

CC(C)N1CCC(N2CCCN(c3cccc(C(=O)Nc4ccncc4)n3)CC2)CC1 [compound 641, 6-{4-[1-(Propan-2-yl)piperidin-4-yl]-1,4-diazepan-1-yl}-N-(pyridin-4-yl)pyridine-2-carboxamide]
% inhibition of tumour growth relative to control (CT26): 32.1%
% inhibition of tumour growth relative to control (H22): 20.1%
% inhibition of tumour growth relative to control (B16F10 small): 0%
% inhibition of tumour growth relative to control (EMT6): 79.8%
